Measurements: PubChem BioAssay AID1963975 (Molecular Pharmacology Branch, DTP, NCI, 2024)
pIC50: −log10 of the molar value.

Tested on: 624824-186-R-J2-PDC multicell spheroids, viability
Assay: Anticancer human tumor 624824-186-R-J2-PDC patient-derived colon adenocarcinoma cell line growth inhibition [PI3K]
Details: for pIC50: curve of first compound; for viability, T/C: stronger effect = lower value
Description: Combinatorial screen of targeted agents with the PI3K inhibitors inavolisib, alpelisib, duvelisib, and copanlisib in multi-cell type tumor spheroids
A high-throughput screen of multi-cell type tumor spheroids was designed to identify active combinations of targeted small molecules and PI3K pathway inhibitors. Complex spheroids include a stromal component modeled by human endothelial cells (HUVEC) and fibroblasts modeled by human mesenchymal stem cells (MSCs). The concentration ranges selected for each drug and investigational agent were based upon clinically achievable concentrations if the clinical Cmax of the agent was known.
Compounds. The drugs and investigational agents: inavolisib (NSC800729), alpelisib (NSC765974), duvelisib (NSC772469), copanlisib (NSC816437), ipatasertib (NSC767898), afuresertib (NSC778305), talazoparib (NSC767125), sapanisertib (NSC764658), selumetinib (NSC741078), tovorafenib (DAY101, NSC766906), vemurafenib (NSC761431), ravoxertinib (NSC781343), sotorasib (NSC818433), MRTX1133 (NSC 836407), abemaciclib (NSC 768073), palbociclib (NSC758247), venetoclax (NSC 766270), SY5609 (NSC837396), enzalutamide (NSC755605), and darolutamide (NSC825331), were obtained from the National Cancer Institute (NCI) Developmental Therapeutics Program Chemical Repository. The FDA-approved anticancer drug set is available from the NCI Developmental Therapeutics Program. […] The stock solutions were prepared in dimethyl sulfoxide (DMSO, Sigma-Aldrich, St. Louis, MO, cat. D2650) at 800-fold the tested concentration and stored at -70 degrees C prior to their use. All drugs and investigational agents were tested over a range starting from a high concentration at or near the clinical Cmax and decreasing in half-log increments. If the clinical Cmax for an agent had not been determined, the highest concentration tested was 10 microM.
Cell Culture. All cells were maintained in an incubator at 37 degrees C and 5% CO2 with 95% humidity. The PDC lines were cultured according to standard operating procedures established by the NCI PDMR (https://pdmr.cancer.gov/sops/default.htm). All PDCs were thawed and cultured in Matrigel-coated flasks prepared with a working solution of 1X Ham's F-12 nutrient mix, without supplementation (Invitrogen, Waltham, MA, cat. 11765054), 100 U/mL penicillin-streptomycin (Invitrogen, cat. 15140122), and 2.5% Matrigel (Corning Inc., Corning, NY, cat. 354248) for the first three passages. The 354836-022-R-J1-PDC, 475296-252-R-J1-PDC, and 997726-040-R-J2-PDC lines were cultured in 6A media, which includes advanced DMEM/F-12 (Thermo Fisher Scientific, cat. 12634028), 10 mM HEPES (Thermo Fisher Scientific, cat. 15630080), 1X GlutaMAX supplement (Thermo Fisher Scientific, cat. 35050061), 0.1 mg/mL primocin (InvivoGen, San Diego, CA, cat. ant-pm-2), 10% defined fetal bovine serum, heat inactivated (HyClone Laboratories Inc., Logan, UT, cat. SH30070.03HI), 50% L-WRN conditioned media (ATCC, cat. CRL-3276), 1.25 mM N-Acetyl-L-cysteine (Sigma-Aldrich, cat. A9165), 10 mM nicotinamide (Sigma-Aldrich, cat. N0636), 1X B-27 supplement (Thermo Fisher Scientific, cat. 17504044), 1X N-2 supplement (Thermo Fisher Scientific, cat. 17502048), and 10 microM Y-27632 dihydrochloride (Tocris Bioscience, Bristol, United Kingdom, cat. 1254). The 624824-186-R-J2-PDC line was cultured in 6C/Colon 1B media, which includes all 6A media components plus 50 ng/mL human EGF recombinant protein (Thermo Fisher Scientific, cat. PHG0311). […]

[1] = second compound 0.00316 µM, first compound 0.0316 µM
[2] = second compound 0.00316 µM, first compound 0.1 µM
[3] = second compound 0.00316 µM, first compound 0.316 µM
[4] = second compound 0.00316 µM, first compound 1 µM
[5] = second compound 0.00316 µM, first compound 3.16 µM
[6] = second compound 0.00316 µM, first compound 10 µM
[7] = second compound 0.01 µM, first compound 0.0316 µM
[8] = second compound 0.01 µM, first compound 0.1 µM
[9] = second compound 0.01 µM, first compound 0.316 µM
[10] = second compound 0.01 µM, first compound 1 µM
[11] = second compound 0.01 µM, first compound 3.16 µM
[12] = second compound 0.01 µM, first compound 10 µM
[13] = second compound 0.0316 µM, first compound 0.0316 µM
[14] = second compound 0.0316 µM, first compound 0.1 µM
[15] = second compound 0.0316 µM, first compound 0.316 µM
[16] = second compound 0.0316 µM, first compound 1 µM
[17] = second compound 0.0316 µM, first compound 3.16 µM
[18] = second compound 0.0316 µM, first compound 10 µM
[19] = second compound 0.1 µM, first compound 0.0316 µM
[20] = second compound 0.1 µM, first compound 0.1 µM
[21] = second compound 0.1 µM, first compound 0.316 µM
[22] = second compound 0.1 µM, first compound 1 µM
[23] = second compound 0.1 µM, first compound 3.16 µM
[24] = second compound 0.1 µM, first compound 10 µM
[25] = second compound 0.316 µM, first compound 0.0316 µM
[26] = second compound 0.316 µM, first compound 0.1 µM
[27] = second compound 0.316 µM, first compound 0.316 µM
[28] = second compound 0.316 µM, first compound 1 µM
[29] = second compound 0.316 µM, first compound 3.16 µM
[30] = second compound 0.316 µM, first compound 10 µM
[31] = second compound 1 µM, first compound 0.0316 µM
[32] = second compound 1 µM, first compound 0.1 µM
[33] = second compound 1 µM, first compound 0.316 µM
[34] = second compound 1 µM, first compound 1 µM
[35] = second compound 1 µM, first compound 3.16 µM
[36] = second compound 1 µM, first compound 10 µM
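Also: spheroids exposed to agents for 7 days before viability read.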
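For viability, T/C in this document: 100% = DMSO vehicle treated spheroids.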

In the case of `CC1(C)CCC(CN2CCN(c3ccc(C(=O)NS(=O)(=O)c4ccc(NCC5CCOCC5)c([N+](=O)[O-])c4)c(Oc4cnc5[nH]ccc5c4)c3)CC2)=C(c2ccc(Cl)cc2)C1` + CC(Nc1ccc2c(c1)OCCn1cc(N3C(=O)OCC3C(F)F)nc1-2)C(N)=O, the pIC50 (second compound 0.00316 µM) was less than 5.00, the pIC50 (second compound 0.01 µM) was less than 5.00 and the pIC50 (second compound 0.0316 µM) was less than 5.00. For the same compound, the pIC50 (second compound 0.1 µM) was less than 5.00, the pIC50 (second compound 0.316 µM) was less than 5.00 and the pIC50 (second compound 1 µM) was less than 5.00. The viability, T/C [1] was 88.5%, the viability, T/C [2] was 86.8% and the viability, T/C [3] was 104%. The viability, T/C [4] was 96.9%, the viability, T/C [5] was 89.1% and the viability, T/C [6] was 77.4%. It also gave a viability, T/C [7] of 93.3%, a viability, T/C [8] of 81.3% and a viability, T/C [9] of 123%. The viability, T/C [10] was 93.7%, the viability, T/C [11] was 75.5% and the viability, T/C [12] was 69%. The viability, T/C [13] was 81.4%, the viability, T/C [14] was 90.5% and the viability, T/C [15] was 99.9%. For the same compound, the viability, T/C [16] was 72.7%, the viability, T/C [17] was 74.5% and the viability, T/C [18] was 79.1%. For the same compound, the viability, T/C [19] was 72.7%, the viability, T/C [20] was 66.9% and the viability, T/C [21] was 79.1%. It also gave a viability, T/C [22] of 66.9%, a viability, T/C [23] of 81.1% and a viability, T/C [24] of 56.6%. For the same compound, the viability, T/C [25] was 79.6%, the viability, T/C [26] was 74.2% and the viability, T/C [27] was 94.9%. It also gave a viability, T/C [28] of 77.4%, a viability, T/C [29] of 79.1% and a viability, T/C [30] of 63%. For the same compound, the viability, T/C [31] was 87.1%, the viability, T/C [32] was 93.3% and the viability, T/C [33] was 79.3%. The viability, T/C [34] was 86%, the viability, T/C [35] was 94.4% and the viability, T/C [36] was 77.8%.
`C[C@@H](NC(=O)c1ncnc(N)c1Cl)c1ncc(C(=O)Nc2cc(C(F)(F)F)c(Cl)cn2)s1` + CC(Nc1ccc2c(c1)OCCn1cc(N3C(=O)OCC3C(F)F)nc1-2)C(N)=O gave a pIC50 (second compound 0.00316 µM) of less than 5.00, a pIC50 (second compound 0.01 µM) of less than 5.00 and a pIC50 (second compound 0.0316 µM) of less than 5.00. It also gave a pIC50 (second compound 0.1 µM) of less than 5.00, a pIC50 (second compound 0.316 µM) of less than 5.00 and a pIC50 (second compound 1 µM) of less than 5.00. The viability, T/C [1] was 108%, the viability, T/C [2] was 107% and the viability, T/C [3] was 73.1%. For the same compound, the viability, T/C [4] was 59.5%, the viability, T/C [5] was 78% and the viability, T/C [6] was 77.9%. The viability, T/C [7] was 110%, the viability, T/C [8] was 86.4% and the viability, T/C [9] was 80.7%. It also gave a viability, T/C [10] of 72.8%, a viability, T/C [11] of 78.8% and a viability, T/C [12] of 77.2%. It also gave a viability, T/C [13] of 92.6%, a viability, T/C [14] of 90.5% and a viability, T/C [15] of 83%. It also gave a viability, T/C [16] of 63.5%, a viability, T/C [17] of 73.4% and a viability, T/C [18] of 78.2%. For the same compound, the viability, T/C [19] was 115%, the viability, T/C [20] was 99.2% and the viability, T/C [21] was 65.7%. For the same compound, the viability, T/C [22] was 69.4%, the viability, T/C [23] was 77.6% and the viability, T/C [24] was 68.7%. For the same compound, the viability, T/C [25] was 98%, the viability, T/C [26] was 77% and the viability, T/C [27] was 68.7%. For the same compound, the viability, T/C [28] was 68.5%, the viability, T/C [29] was 67.2% and the viability, T/C [30] was 56.6%. The viability, T/C [31] was 77%, the viability, T/C [32] was 93.7% and the viability, T/C [33] was 68.4%. It also gave a viability, T/C [34] of 63.2%, a viability, T/C [35] of 55.4% and a viability, T/C [36] of 53.1%.
For `Cn1ncnc1[C@H]1c2n[nH]c(=O)c3cc(F)cc(c23)N[C@@H]1c1ccc(F)cc1` + CC(Nc1ccc2c(c1)OCCn1cc(N3C(=O)OCC3C(F)F)nc1-2)C(N)=O, the pIC50 (second compound 0.00316 µM) was less than 7.00, the pIC50 (second compound 0.01 µM) was less than 7.00 and the pIC50 (second compound 0.0316 µM) was less than 7.00. For the same compound, the pIC50 (second compound 0.1 µM) was less than 7.00, the pIC50 (second compound 0.316 µM) was less than 7.00 and the pIC50 (second compound 1 µM) was less than 7.00. The viability, T/C (second compound 0.00316 µM, first compound 0.000316 µM) was 78.6%, the viability, T/C (second compound 0.00316 µM, first compound 0.001 µM) was 115% and the viability, T/C (second compound 0.00316 µM, first compound 0.00316 µM) was 96.8%. For the same compound, the viability, T/C (second compound 0.00316 µM, first compound 0.01 µM) was 95.4%, the viability, T/C [1] was 94.8% and the viability, T/C [2] was 82.2%. For the same compound, the viability, T/C (second compound 0.01 µM, first compound 0.000316 µM) was 112%, the viability, T/C (second compound 0.01 µM, first compound 0.001 µM) was 82.4% and the viability, T/C (second compound 0.01 µM, first compound 0.00316 µM) was 92.9%. It also gave a viability, T/C (second compound 0.01 µM, first compound 0.01 µM) of 90.4%, a viability, T/C [7] of 93.1% and a viability, T/C [8] of 91.5%. It also gave a viability, T/C (second compound 0.0316 µM, first compound 0.000316 µM) of 96.7%, a viability, T/C (second compound 0.0316 µM, first compound 0.001 µM) of 97.1% and a viability, T/C (second compound 0.0316 µM, first compound 0.00316 µM) of 101%. It also gave a viability, T/C (second compound 0.0316 µM, first compound 0.01 µM) of 81.3%, a viability, T/C [13] of 90.5% and a viability, T/C [14] of 89.5%. For the same compound, the viability, T/C (second compound 0.1 µM, first compound 0.000316 µM) was 108%, the viability, T/C (second compound 0.1 µM, first compound 0.001 µM) was 89% and the viability, T/C (second compound 0.1 µM, first compound 0.00316 µM) was 81.2%. For the same compound, the viability, T/C (second compound 0.1 µM, first compound 0.01 µM) was 89.8%, the viability, T/C [19] was 74.4% and the viability, T/C [20] was 84.9%. For the same compound, the viability, T/C (second compound 0.316 µM, first compound 0.000316 µM) was 90.7%, the viability, T/C (second compound 0.316 µM, first compound 0.001 µM) was 78% and the viability, T/C (second compound 0.316 µM, first compound 0.00316 µM) was 81.9%. For the same compound, the viability, T/C (second compound 0.316 µM, first compound 0.01 µM) was 98.3%, the viability, T/C [25] was 74.8% and the viability, T/C [26] was 86.1%. It also gave a viability, T/C (second compound 1 µM, first compound 0.000316 µM) of 91.6%, a viability, T/C (second compound 1 µM, first compound 0.001 µM) of 85.3% and a viability, T/C (second compound 1 µM, first compound 0.00316 µM) of 90%. For the same compound, the viability, T/C (second compound 1 µM, first compound 0.01 µM) was 86.2%, the viability, T/C [31] was 110% and the viability, T/C [32] was 77.9%.
